Earlier results, collected in patent publication US10995060B2, “Amorphous Trisodium Sacubitril Valsartan and process for its preparation” (priority 2016, dated 2021).
Structures can show the parent of a compound that is named as a salt. Where two headings read alike, the source gives them in different places.

Assays:
[1] = for Crystalline state / polymorph stability after exposure: 80° C at 0% RH and 75% RH for 3 days; for Result after loading of the sample at 80° C./0% RH / Result after loading of the sample at 80° C./75% RH: solid form by X-ray powder analysis, 3 days
[2] = crystal powder of Example 11 of WO 200206253

Row | Compound | Crystalline state / polymorph stability after exposure [1] | Result after loading of the sample at 80° C./0% RH [1] | Result after loading of the sample at 80° C./75% RH [1] | Result after loading of the sample at 80° C./75% RH ([1]; listed as sodium salt of Sacubitril) | Hygroscopicity [2]
1 | CCOC(=O)[C@H](C)C[C@@H](Cc1ccc(-c2ccccc2)cc1)NC(=O)CCC(=O)O [calcium salt of sacubitril] | did not change | Crystalline sample(form I)I | Crystalline sample(form I)I | – | –
2 | CCOC(=O)[C@H](C)C[C@@H](Cc1ccc(-c2ccccc2)cc1)NC(=O)CCC(=O)[O-].[Na+] [sodium salt of sacubitril] | high rate of polymorph instability | Semicrystalline phase | Amorphous sample | completely amorphous | –
3 | Hydrate of valsartan disodium salt (2.4 ě 1.0 mole H2O) | – | – | – | – | slightly hygroscopic
